PMC4646021, “Streptococcus pneumoniae NanC” (The Journal of Biological Chemistry, 2015)

Tests used:
NanC CBM = target: T1, NanC CBM (Streptococcus pneumoniae, UniProt A0A0H2UQE4); test: isothermal titration calorimetry; format: binding; conditions: 20 mM Tris pH 8, 50 mM NaCl; stoichiometry fixed 1:1; CBM site
T1 construct: gene SP_1326; purified by scheme A

NanC (scheme A) = target: T2, NanC (scheme A) (Streptococcus pneumoniae, UniProt A0A0H2UQE4); test: X-ray crystal structure, soak; format: binding
T2 construct: gene SP_1326; residues 28-740, signal peptide removed (CBM plus catalytic domain); pET21b, E. coli Rosetta (DE3), nickel column; 82 kDa
T2 sequence (A0A0H2UQE4 entry or part of it): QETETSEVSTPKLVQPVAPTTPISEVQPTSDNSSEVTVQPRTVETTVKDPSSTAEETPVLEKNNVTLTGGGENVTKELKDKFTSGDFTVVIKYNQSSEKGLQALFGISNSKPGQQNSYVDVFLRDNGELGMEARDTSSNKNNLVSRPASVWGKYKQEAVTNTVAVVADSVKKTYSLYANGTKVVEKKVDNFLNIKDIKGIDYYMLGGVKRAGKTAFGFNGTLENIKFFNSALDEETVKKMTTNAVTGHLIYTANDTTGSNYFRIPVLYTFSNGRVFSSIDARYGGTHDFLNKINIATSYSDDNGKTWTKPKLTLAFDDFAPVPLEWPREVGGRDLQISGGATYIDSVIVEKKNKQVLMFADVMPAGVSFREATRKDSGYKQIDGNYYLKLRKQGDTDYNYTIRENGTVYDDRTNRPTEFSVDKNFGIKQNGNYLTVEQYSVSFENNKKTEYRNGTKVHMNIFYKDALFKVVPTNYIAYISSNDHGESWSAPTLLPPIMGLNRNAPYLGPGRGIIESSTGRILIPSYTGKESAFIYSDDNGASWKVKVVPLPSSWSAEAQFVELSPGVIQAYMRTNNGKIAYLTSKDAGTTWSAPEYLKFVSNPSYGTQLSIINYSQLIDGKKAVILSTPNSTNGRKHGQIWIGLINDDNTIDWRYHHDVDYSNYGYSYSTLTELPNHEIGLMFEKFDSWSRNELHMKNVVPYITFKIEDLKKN

T1 sequence (A0A0H2UQE4 entry or part of it): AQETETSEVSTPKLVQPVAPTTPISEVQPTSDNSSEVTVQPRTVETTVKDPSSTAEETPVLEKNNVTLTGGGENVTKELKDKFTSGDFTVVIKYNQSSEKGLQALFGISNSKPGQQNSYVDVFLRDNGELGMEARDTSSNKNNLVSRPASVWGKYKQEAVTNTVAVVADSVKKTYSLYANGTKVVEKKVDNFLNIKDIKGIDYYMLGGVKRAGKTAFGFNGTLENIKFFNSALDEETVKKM

Row | SMILES | Kd (NanC CBM) [µM] | other results
1 | CC(=O)N[C@H]1[C@H]([C@H](O)[C@H](O)CO)O[C@@](OC[C@H]2O[C@@H](O[C@H]3[C@H](O)[C@@H](O)C(O)O[C@@H]3CO)[C@H](O)[C@@H](O)[C@H]2O)(C(=O)O)C[C@@H]1O (stereo partly shown) [6′SL] | 1600 | –
2 | CC(=O)N[C@H]1[C@H]([C@H](O)[C@H](O)CO)O[C@@](O[C@H]2[C@@H](O)[C@@H](CO)O[C@@H](O[C@H]3[C@H](O)[C@@H](O)C(O)O[C@@H]3CO)[C@@H]2O)(C(=O)O)C[C@@H]1O (stereo partly shown) [3′SL] | 1480 | –
3 | CC(=O)N[C@H]1[C@H]([C@H](O)[C@H](O)CO)OC(F)(C(=O)O)C(F)[C@@H]1O (stereo partly shown) [2,3F-Neu5Ac] | – | X-ray crystal structure, soak (NanC (scheme A); covalent, active site Tyr-695 adduct 3F-β-Neu5Ac, 5 mM, 45 min soak, intact compound also in CBM site): 3F-β-Neu5Ac was covalently bound to Tyr-695 in an unstrained
4 | CCC(CC)O[C@@H]1C=C(C(=O)O)C[C@H](N)[C@H]1NC(C)=O [OC] | – | X-ray crystal structure, soak (NanC (scheme A); catalytic active site, 20 mM, 5 min soak): OC binds in the NanC active site
